Results from paper PMC4109680, “Identification and Preclinical Pharmacology of the γ-Secretase Modulator BMS-869780” (International Journal of Alzheimer's Disease, 2014).

System: Aβ peptides (H4-APPsw)
Assay: Aβ peptide profile in H4-APPsw cultures by MALDI-TOF mass spectrometry and urea gel western blot
Format: cell-based, human
Description: For western blotting of Aβ peptides from H4-APPsw cell cultures, Aβ was immunoprecipitated directly from the cell culture medium and was eluted from the protein G beads by addition of lithium dodecyl sulfate (LDS) electrophoresis sample buffer (Invitrogen). Aβ peptides were separated by gel electrophoresis in the presence of 8 M urea, transferred to PVDF membrane, and detected by western blotting using monoclonal 26D6-HRP conjugate.
H4-APPsw cell cultures were grown in T-75 flasks until 75% confluent and rinsed with Dulbecco's phosphate buffered saline (DPBS; Gibco cat number 14109), and 20 mL of DMEM supplemented with L-glutamine (2 mM), geneticin, penicillin, streptomycin, and DMSO with or without BMS-869780 was added (final concentration of DMSO was 0.2%). After incubation for 24 hours at 37°C in 5% CO2, culture medium was removed, centrifuged to remove cells, and frozen in aliquots at −80°C. For immunoprecipitation, aliquots of cell medium (4 mL) were thawed, followed by the addition of protease inhibitor cocktail (Sigma P-8340) to a final concentration of 1%, 60 ng of [^15N]-Aβ1-40 synthetic peptide (rPeptide, 1101-1, Athens, GA), 30 μg of monoclonal 26D6, and 15 μg of monoclonal 4G8. After incubation for 20 min on ice, 80 μL of protein G agarose beads (Pierce Rockford, IL) was added, and incubation was continued overnight at 4°C. […]
Figure 3 BMS-869780 increased the levels of the shorter peptides Aβ1-38 and Aβ1-37. (a) Top panel: an equimolar mix of synthetic peptides Aβ1-37, Aβ1-38, Aβ1-39, Aβ1-40, [^15N]-Aβ1-40, and Aβ1-42 was evaluated by MALDI-TOF mass spectrometry. H4-APPsw cell cultures were treated with vehicle (0.1% DMSO—middle panel) or BMS-869780 (100 nM—bottom panel), [^15N]-Aβ1-40 was added, and Aβ peptides were immunoprecipitated and evaluated by MALDI-TOF mass spectrometry. […] Aβ peptides were separated by gel electrophoresis in the presence of urea and detected by western blotting. […]

Compound: COc1cc(Nc2nc3n(n2)CCCC[C@H]3c2ccc(F)cc2)ccc1-n1cnc(Cl)c1 [BMS-869780]
- Aβ1-37 and Aβ1-38 levels by MALDI mass spectrometry (100 nM): dramatically increased
- Aβ1-40 and Aβ1-42 levels by MALDI mass spectrometry (100 nM): essentially undetectable
- Aβ1-37 and Aβ1-38 levels by western blot (100 nM and 10 nM): Increased levels
